The text below walks through data of ChEMBL document CHEMBL4342466, “Novel, Self-Assembling Dimeric Inhibitors of Human β Tryptase” (J Med Chem, 2020).

A short description of data set [1]: Inhibition of beta-tryptase in human HMC1 cells assessed as effect on tryptase activity by measured cell lysis. The data set is classed as cell-based.
A short description of data set [2]: Inhibition of beta-tryptase in human HMC1 cells assessed as effect on A23187-induced degranulation. The data set is classed as cell-based.
Data set [3] is filed under the species Homo sapiens. Nature of the data set: Inhibition of human recombinant beta-tryptase assessed as remaining enzyme activity at 10 uM pre-incubated for 3 hrs before N-tert-butoxycarbonyl-Gln-Ala-Arg-AMC substrate addition and measured after 8 hrs by spectrometry relative to control.
Data set [4] can be described thus: Stability in mouse liver microsomes assessed as parent compound remaining at 15 uM in presence of NADPH incubated for 60 mins. The data set is classed as ADME, Microsome. The conditions noted are these: read-out: Stability. (In general: Microsomes from liver hold many membrane-bound enzymes, among them those of drug oxidation.)
Data set [5] is described as follows: Stability in human liver microsomes assessed as parent compound remaining at 15 uM in presence of NADPH incubated for 60 mins. The data set is classed as ADME, Microsome. The conditions noted are these: liver microsomes, read-out: Stability.
The nature of data set [6]: Stability in rat liver microsomes assessed as parent compound remaining at 15 uM in absence of NADPH incubated for 60 mins. The conditions noted are these: read-out: Stability. The class given is ADME, Microsome.
Data set [7] can be described thus: Dissociation constant, pKa of the compound (NH3*) by pH metric assay. The class given is physicochemical.
Data set [8] can be described thus: Dissociation constant, pKa of the compound (B(OH)2) by pH metric assay. The data set is classed as physicochemical.
The nature of data set [9]: Stability in mouse liver microsomes assessed as parent compound remaining at 15 uM in absence of NADPH incubated for 60 mins. The data set is classed as ADME, Microsome. As to conditions: read-out: Stability.
Data set [10] can be described thus: Effective permeability assessed as mass retention by PAMPA method. The data set is classed as ADME.
A short description of data set [11]: Stability in rat liver microsomes assessed as parent compound remaining at 15 uM in presence of NADPH incubated for 60 mins. As to conditions: read-out: Stability. The class given is ADME, Microsome.
In data set [12] the target is CYP2C19 (Homo sapiens, UniProt P33261). Put plainly: Inhibition of CYP2C19 (unknown origin) at 10 uM relative to control. The class given is ADME.
Data set [13] is described as follows: Apparent permeability from apical to basolateral side in MDCK cells. The conditions noted are these: dog. The data set is classed as ADME, cell-based, Canis lupus familiaris.
Data set [14] addresses CYP3A4 (Homo sapiens, UniProt P08684). Nature of the data set: Inhibition of CYP3A4 (unknown origin) at 10 uM relative to control. The data set is classed as ADME.
The target of data set [15] is CYP2D6 (Homo sapiens, UniProt P10635). Put plainly: Inhibition of CYP2D6 (unknown origin) at 10 uM relative to control. The data set is classed as ADME.
The target of data set [16] is T1, CYP1A2 (Homo sapiens, UniProt P05177).
T1 sequence (P05177 whole entry): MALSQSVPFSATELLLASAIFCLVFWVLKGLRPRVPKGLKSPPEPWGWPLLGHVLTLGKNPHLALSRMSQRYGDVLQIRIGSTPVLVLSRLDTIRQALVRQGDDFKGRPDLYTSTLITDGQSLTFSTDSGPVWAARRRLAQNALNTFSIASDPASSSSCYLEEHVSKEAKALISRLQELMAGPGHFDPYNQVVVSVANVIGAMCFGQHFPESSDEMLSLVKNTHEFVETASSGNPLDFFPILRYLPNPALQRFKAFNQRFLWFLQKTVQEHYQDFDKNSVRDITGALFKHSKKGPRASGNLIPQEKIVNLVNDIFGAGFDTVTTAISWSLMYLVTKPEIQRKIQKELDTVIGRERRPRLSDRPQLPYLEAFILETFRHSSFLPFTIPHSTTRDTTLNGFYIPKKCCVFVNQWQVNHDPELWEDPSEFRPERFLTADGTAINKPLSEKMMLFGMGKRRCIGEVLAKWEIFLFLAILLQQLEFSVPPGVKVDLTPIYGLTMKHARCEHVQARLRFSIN
Put plainly: Inhibition of CYP1A2 (unknown origin) at 10 uM relative to control. The class given is ADME.

Data set [17] is described as follows: Stability in human liver microsomes assessed as parent compound remaining at 15 uM in absence of NADPH incubated for 60 mins. The data set is classed as ADME, Microsome. As to conditions: liver microsomes, read-out: Stability.
For data set [18], the target named is CYP2C9 (Homo sapiens, UniProt P11712). Nature of the data set: Inhibition of CYP2C9 (unknown origin) at 10 uM relative to control. The data set is classed as ADME.
Data set [19] is described as follows: Inhibition of human recombinant beta-tryptase pre-incubated for 3 hrs before N-tert-butoxycarbonyl-Gln-Ala-Arg-AMC substrate addition and measured every 30 secs for 15 mins by spectrometry.
Data set [20] can be described thus: Effective permeability from apical to basolateral side in PAMPA method. The class given is ADME. The conditions noted are these: read-out: Peff.
Data set [21] in a line: Dissociation constant, pKa of the compound (B(OH)2) by UV metric assay. The data set is classed as physicochemical.
Data set [22] is described as follows: Plasma concentration in mouse xenografted with human HMC1 cells at 10 mg/kg, iv dosed at time 0 and again 24 hrs later and measured at 24 hrs after second dose by LC-MS/MS analysis. The class given is ADME, organism-based. Background: Xenograft models place foreign cells or tissue in a host animal.
The nature of data set [23]: Plasma concentration in mouse xenografted with human HMC1 cells at 10 mg/kg, iv dosed at time 0 and again 24 hrs later and measured at 8 hrs after second dose by LC-MS/MS analysis. The data set is classed as ADME, organism-based.
The nature of data set [24]: Drug concentration in tumor of mouse xenografted with human HMC1 cells at 10 mg/kg, iv dosed at time 0 and again 24 hrs later and measured at 8 hrs after second dose by LC-MS/MS analysis. The data set is classed as ADME, organism-based, Neoplasm. As to conditions: read-out: Drug uptake.
Data set [25] can be described thus: Plasma concentration in mouse xenografted with human HMC1 cells at 10 mg/kg, iv dosed at time 0 and again 24 hrs later and measured at 0 hrs after second dose by LC-MS/MS analysis. The data set is classed as ADME, organism-based.
The nature of data set [26]: Plasma concentration in mouse xenografted with human HMC1 cells at 10 mg/kg, iv dosed at time 0 and again 24 hrs later and measured at 2 hrs after second dose by LC-MS/MS analysis. The data set is classed as ADME, organism-based.
The nature of data set [27]: Drug concentration in tumor of mouse xenografted with human HMC1 cells at 10 mg/kg, iv dosed at time 0 and again 24 hrs later and measured at 2 hrs after second dose by LC-MS/MS analysis. The conditions noted are these: read-out: Drug uptake. The data set is classed as ADME, organism-based, Neoplasm.
The nature of data set [28]: Drug concentration in tumor of mouse xenografted with human HMC1 cells at 10 mg/kg, iv dosed at time 0 and again 24 hrs later and measured at 48 hrs after second dose by LC-MS/MS analysis. The data set is classed as ADME, organism-based, Neoplasm. The conditions noted are these: read-out: Drug uptake.
Data set [29] can be described thus: Drug concentration in tumor of mouse xenografted with human HMC1 cells at 10 mg/kg, iv dosed at time 0 and again 24 hrs later and measured at 24 hrs after second dose by LC-MS/MS analysis. The class given is ADME, organism-based, Neoplasm. As to conditions: read-out: Drug uptake.
A short description of data set [30]: Drug concentration in tumor of mouse xenografted with human HMC1 cells at 10 mg/kg, iv dosed at time 0 and again 24 hrs later and measured at 0 hrs after second dose by LC-MS/MS analysis. The class given is ADME, organism-based, Neoplasm. As to conditions: read-out: Drug uptake.
Data set [31] in a line: Dissociation constant, pKa of the compound (OH) by UV metric assay. The class given is physicochemical.
Data set [32] in a line: Dissociation constant, pKa of the compound (OH) by pH metric assay. The data set is classed as physicochemical.

CYP2C9, sequence (P11712 whole entry): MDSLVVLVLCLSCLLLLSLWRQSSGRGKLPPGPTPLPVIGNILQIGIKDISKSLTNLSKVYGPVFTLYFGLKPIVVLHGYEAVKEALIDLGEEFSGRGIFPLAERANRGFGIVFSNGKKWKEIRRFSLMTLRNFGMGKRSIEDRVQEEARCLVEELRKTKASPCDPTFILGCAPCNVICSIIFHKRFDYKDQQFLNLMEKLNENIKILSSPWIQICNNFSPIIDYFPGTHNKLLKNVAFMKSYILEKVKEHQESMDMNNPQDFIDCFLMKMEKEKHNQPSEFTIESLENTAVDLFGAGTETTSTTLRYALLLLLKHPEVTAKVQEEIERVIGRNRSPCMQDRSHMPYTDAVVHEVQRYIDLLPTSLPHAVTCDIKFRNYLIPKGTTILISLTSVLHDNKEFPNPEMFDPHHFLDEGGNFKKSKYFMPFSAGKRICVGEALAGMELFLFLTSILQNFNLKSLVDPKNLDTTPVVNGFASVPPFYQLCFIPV
CYP2C19, sequence (P33261 whole entry): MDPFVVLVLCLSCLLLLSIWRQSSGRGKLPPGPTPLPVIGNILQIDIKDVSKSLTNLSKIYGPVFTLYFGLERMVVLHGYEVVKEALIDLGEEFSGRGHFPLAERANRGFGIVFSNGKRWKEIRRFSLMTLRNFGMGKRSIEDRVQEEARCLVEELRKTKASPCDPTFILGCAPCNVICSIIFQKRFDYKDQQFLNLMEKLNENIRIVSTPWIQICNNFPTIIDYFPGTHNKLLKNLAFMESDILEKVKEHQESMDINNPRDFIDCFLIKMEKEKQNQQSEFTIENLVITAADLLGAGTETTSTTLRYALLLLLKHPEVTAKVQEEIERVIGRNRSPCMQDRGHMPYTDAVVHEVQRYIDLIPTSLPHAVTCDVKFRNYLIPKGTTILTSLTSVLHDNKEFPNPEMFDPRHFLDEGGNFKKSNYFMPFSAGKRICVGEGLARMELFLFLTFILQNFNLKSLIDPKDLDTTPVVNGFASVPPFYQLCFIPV
CYP3A4, sequence (P08684 whole entry): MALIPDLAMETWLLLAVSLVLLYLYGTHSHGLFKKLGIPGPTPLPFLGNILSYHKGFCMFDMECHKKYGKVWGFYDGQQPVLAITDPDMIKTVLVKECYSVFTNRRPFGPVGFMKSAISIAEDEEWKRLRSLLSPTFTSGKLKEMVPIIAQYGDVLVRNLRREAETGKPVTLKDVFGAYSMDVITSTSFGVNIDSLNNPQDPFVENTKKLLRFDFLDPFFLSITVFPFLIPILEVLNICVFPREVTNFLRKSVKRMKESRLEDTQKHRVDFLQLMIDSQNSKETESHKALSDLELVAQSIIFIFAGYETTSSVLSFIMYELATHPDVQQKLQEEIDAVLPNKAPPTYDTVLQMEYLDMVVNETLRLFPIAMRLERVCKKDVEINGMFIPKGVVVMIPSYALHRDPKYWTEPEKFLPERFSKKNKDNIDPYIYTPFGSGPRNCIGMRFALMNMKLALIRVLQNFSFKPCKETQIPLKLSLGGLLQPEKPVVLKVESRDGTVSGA
CYP2D6, sequence (P10635 whole entry): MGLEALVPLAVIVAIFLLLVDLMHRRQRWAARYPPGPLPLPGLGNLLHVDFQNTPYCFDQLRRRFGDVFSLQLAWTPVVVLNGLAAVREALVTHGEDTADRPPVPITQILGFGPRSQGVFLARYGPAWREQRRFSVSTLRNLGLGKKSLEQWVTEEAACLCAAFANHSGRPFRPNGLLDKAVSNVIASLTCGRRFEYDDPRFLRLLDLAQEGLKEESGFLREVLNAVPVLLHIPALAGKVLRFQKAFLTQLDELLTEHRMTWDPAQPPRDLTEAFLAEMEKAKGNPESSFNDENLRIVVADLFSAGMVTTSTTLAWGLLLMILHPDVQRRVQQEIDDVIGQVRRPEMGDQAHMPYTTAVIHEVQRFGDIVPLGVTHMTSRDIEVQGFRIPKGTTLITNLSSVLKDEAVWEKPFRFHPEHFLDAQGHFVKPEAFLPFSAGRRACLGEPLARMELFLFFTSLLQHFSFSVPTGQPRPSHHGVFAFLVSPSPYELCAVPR

One may read the IC50 as the concentration needed to halve the response being measured. Take `NCc1ccc2c(c1)C1(CCN(C(=O)c3cccc(-c4cccc(B5Oc6cc(C(=O)N7CCC8(CC7)COc7ccc(CN)cc78)cc(Cl)c6O5)c4)c3)CC1)CO2`: the IC50 in data set [1] amounted to 5.45 µM; in data set [2], 0.24 µM. Further, the Activity in [3] was 50%.
As usually defined, the pKa is the negative logarithm of the acid dissociation constant. Higher therefore signals a weaker acid or stronger base. Broadly, the inhibition is the percentage by which the read-out fell short of the control. A higher inhibition goes with a response far below the control. By Papp A→B is commonly meant the apparent permeability from the apical to the basolateral side of a cell layer. Regarding `NCc1cccc(C2CCN(C(=O)c3cccc4ccc(B(O)O)cc34)CC2)c1`, the remaining at 1 h, 15 µM came to 99% in [4]; 100% in data set [5]; 100% in data set [6]; 100% in [9]; 100% in data set [11]; 97% in data set [17]. The figures for the pKa in [7], in [8] and in data set [21] were 9.53, 8.18 and 8.51, respectively. In addition, the Activity in data set [10] was determined as 96.2%. The inhibition at 10 µM in data set [12] is 80%; in data set [14] it was 27%; in data set [15] it was 79%; in data set [16] it was 45%; in data set [18], 97%. Moreover, in data set [13], the Papp A→B was found to be 0.28 ×10⁻⁶ cm/s. In [19], the IC50 came to 15.8 µM. Also, the Papp in data set [20] is 2.06 ×10⁻⁶ cm/s.
In the case of `NCc1ccc2c(c1)C1(CCN(C(=O)c3cccc(-c4cccc(B(O)O)c4)c3)CC1)CO2.O=C(O)C(F)(F)F`, the concentration at 24 h in data set [22] was determined as 0.14 nM; in data set [29] it was 2.14 nM. In addition, the concentration at 8 h in [23] worked out at 43 nM; in [24], 107 nM. In addition, the concentration at 0 h in data set [25] turned out to be 0.53 nM; in data set [30], 27.9 nM. Besides, the concentration at 2 h in [26] was 1290 nM; in [27], 554 nM. For the same compound, the concentration at 48 h in data set [28] was 0.56 nM.
Consider `NCc1cccc(C2CCN(C(=O)/C=C/c3ccc(O)c(O)c3)CC2)c1`, for which the remaining at 1 h, 15 µM in data set [4] is 18%; in data set [5], 8%; in data set [6] it was 73%; in [9] it was 36%; in [11], 37%; in [17], 11%. For the same compound, the results for the pKa in data set [31], in [7] and in data set [32] were 7.37, 9.67 and 8.11, respectively. For the same compound, the Activity in data set [10] amounted to 26.3%. Besides, the inhibition at 10 µM stood at 77% in [12]; 19% in data set [14]; 47% in data set [15]; 18% in data set [16]; 75% in [18]. Also, the Papp A→B in data set [13] worked out at 0.31 ×10⁻⁶ cm/s. For the same compound, the IC50 in [19] was found to be 3.84 µM. Also, the Papp in data set [20] came out at 0.01 ×10⁻⁶ cm/s.
